Experiment: pH stability of quenched linker-payloads in buffers (LCMS)
Type: physicochemical
Protocol: To a solution of compound (payloads or quenched-linker-payloads) in DMSO (0.2-1.0 mg/mL) was added corresponding PBS buffer (V(buffer)/V(DMSO)=5) to give test samples (pH 3, 4, 5, 6, 7.4, and 8.5, or other special pH). The test samples were incubated at RT for at least 3 days and monitored by LCMS (i.e., at 1 hr, 2 hr, 4 hr, 8 hr, and 1 day, 2 day, 3 day, 4 day, 5 day, 6 day, 7 day, 8 day, 9 day, and 21 day time points). Initial concentrations of the samples were 0.2 mg/mL (DMSO/buffer, v/v=1/5). […] The payloads and quenched linker-payloads were mostly stable at pH >5.0, 6.0, 7.4 and 8.5 after 3 days. In more acidic conditions, such as pH 1.0, the payloads or linker-payloads were easily cleaved to release D*-OH.

Compound | P: percentage of budesonide released from the linker-payloads (pH 4.0, day 1) | P: percentage of budesonide released from the linker-payloads (pH 4.0, day 2) | P: percentage of budesonide released from the linker-payloads (pH 4.0, day 7) | P: percentage of budesonide released from the linker-payloads (pH 5.0, day 1) | P: percentage of budesonide released from the linker-payloads (pH 5.0, day 2) | P: percentage of budesonide released from the linker-payloads (pH 5.0, day 7) | P: percentage of budesonide released from the linker-payloads (pH 6.0, day 1) | P: percentage of budesonide released from the linker-payloads (pH 6.0, day 2) | P: percentage of budesonide released from the linker-payloads (pH 6.0, day 7) | P: percentage of budesonide released from the linker-payloads (pH 7.4, day 1) | P: percentage of budesonide released from the linker-payloads (pH 7.4, day 2) | P: percentage of budesonide released from the linker-payloads (pH 7.4, day 7) | other results
CCCC1O[C@@H]2C[C@H]3[C@@H]4CCC5=CC(=O)C=C[C@]5(C)[C@H]4[C@@H](O)C[C@]3(C)[C@]2(C(=O)COC2CCCN2C(=O)CNC(=O)CCOCCOCCOCCOCCNC(=O)CCC(=O)N2Cc3ccccc3-c3c(nnn3CCOCCOCCOCCOCCC(=O)NCCS(=O)(=O)O)-c3ccccc32)O1 (stereo partly drawn) [Q1L6-PII-9] | 69% | 89% | 99% | 5% | 10% | 28% | 0% | 0% | 8% | 0% | 0% | 0% | LP: percentage of linker-payloads remaining (buffer, 1 day, 0.2 mg/mL, pH 4): 30%; LP: percentage of linker-payloads remaining (buffer, 1 day, 0.2 mg/mL, pH 6): 100%; LP: percentage of linker-payloads remaining (buffer, 1 day, 0.2 mg/mL, pH 7.4): 100%; LP: percentage of linker-payloads remaining (buffer, 2 day, 0.2 mg/mL, pH 4): 10%; LP: percentage of linker-payloads remaining (buffer, 2 day, 0.2 mg/mL, pH 6): 100%; LP: percentage of linker-payloads remaining (buffer, 2 day, 0.2 mg/mL, pH 7.4): 100%; LP: percentage of linker-payloads remaining (buffer, 7 day, 0.2 mg/mL, pH 4): 0%; LP: percentage of linker-payloads remaining (buffer, 7 day, 0.2 mg/mL, pH 6): 92%; LP: percentage of linker-payloads remaining (buffer, 7 day, 0.2 mg/mL, pH 7.4): 100%
CCCC1OC2CC3C4CCC5=CC(=O)C=CC5(C)C4C(O)CC3(C)C2(C(=O)COC2CCN2C(=O)CNC(=O)CCOCCOCCOCCOCCNC(=O)CCC(=O)N2Cc3ccccc3-c3c(nnn3CCOCCOCCOCCOCCC(=O)NCCS(=O)(=O)O)-c3ccccc32)O1 (mixture of isomers) [Q1L6-PII-13] | 0% | 0% | 0% | 0% | 0% | 0% | 0% | 0% | 0% | 0% | 0% | 0% | LP: percentage of linker-payloads remaining (pH 4.0, day 1): 100%; LP: percentage of linker-payloads remaining (pH 4.0, day 2): 100%; LP: percentage of linker-payloads remaining (pH 4.0, day 7): 100%; LP: percentage of linker-payloads remaining (pH 5.0, day 1): 100%; LP: percentage of linker-payloads remaining (pH 5.0, day 2): 100%; LP: percentage of linker-payloads remaining (pH 5.0, day 7): 100%; LP: percentage of linker-payloads remaining (pH 6.0, day 1): 100%; LP: percentage of linker-payloads remaining (pH 6.0, day 2): 100%; LP: percentage of linker-payloads remaining (pH 6.0, day 7): 100%; LP: percentage of linker-payloads remaining (pH 7.4, day 1): 100%; LP: percentage of linker-payloads remaining (pH 7.4, day 2): 100%; LP: percentage of linker-payloads remaining (pH 7.4, day 7): 100%
